Measured values from patent US8883776B2, “Cycloalkyloxy- and heterocycloalkyloxypyridine compounds as modulators of the histamine H3 receptor” (Janssen Pharmaceutica N.V., priority 2007, dated 2014).
pKi: −log10 of the molar value. Structures can show the parent of a compound that is named as a salt.

How the values were obtained:
[1] = biological target: T1, cloned human H3 receptors (Homo sapiens, UniProt Q9Y5N1); experiment: H3 Receptor Binding (Human); settings: cloned human H3 receptors stably expressed in SK-N-MC cells; average of results
T1 construct: expressed in transfected cells
T1 sequence (Q9Y5N1 whole entry): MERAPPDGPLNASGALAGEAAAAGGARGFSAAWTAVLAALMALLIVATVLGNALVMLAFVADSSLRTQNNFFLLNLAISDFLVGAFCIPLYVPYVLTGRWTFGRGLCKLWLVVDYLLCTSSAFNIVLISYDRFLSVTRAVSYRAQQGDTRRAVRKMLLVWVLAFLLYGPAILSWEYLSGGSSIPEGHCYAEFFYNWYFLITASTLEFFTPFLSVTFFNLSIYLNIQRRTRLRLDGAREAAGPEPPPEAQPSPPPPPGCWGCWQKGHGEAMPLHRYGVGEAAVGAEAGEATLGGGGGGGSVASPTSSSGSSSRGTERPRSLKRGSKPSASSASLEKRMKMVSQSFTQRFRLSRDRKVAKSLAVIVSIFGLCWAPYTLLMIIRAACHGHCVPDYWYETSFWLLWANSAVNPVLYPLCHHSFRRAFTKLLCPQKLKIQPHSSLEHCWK
Description: H3 Receptor Binding (Human)
Binding of compounds to the cloned human H3 receptors, stably expressed in SK-N-MC cells, was performed as described by Barbier, A. J. et al. (Br. J. Pharmacol. 2004, 143(5), 649-661).

rat H3 receptor [2] = biological target: T2, rat H3 receptor (Rattus norvegicus, UniProt Q9QYN8); experiment: Cyclic AMP Accumulation, SK-N-MC cells expressing reporter construct and rat H3 receptor; type: cell-based; set-up: expressed in transfected cells; host or cells: SK-N-MC sublines with reporter construct; settings: cAMP accumulation, average of results, read-out: Rat pA2 (converted)
T2 sequence (Q9QYN8 whole entry): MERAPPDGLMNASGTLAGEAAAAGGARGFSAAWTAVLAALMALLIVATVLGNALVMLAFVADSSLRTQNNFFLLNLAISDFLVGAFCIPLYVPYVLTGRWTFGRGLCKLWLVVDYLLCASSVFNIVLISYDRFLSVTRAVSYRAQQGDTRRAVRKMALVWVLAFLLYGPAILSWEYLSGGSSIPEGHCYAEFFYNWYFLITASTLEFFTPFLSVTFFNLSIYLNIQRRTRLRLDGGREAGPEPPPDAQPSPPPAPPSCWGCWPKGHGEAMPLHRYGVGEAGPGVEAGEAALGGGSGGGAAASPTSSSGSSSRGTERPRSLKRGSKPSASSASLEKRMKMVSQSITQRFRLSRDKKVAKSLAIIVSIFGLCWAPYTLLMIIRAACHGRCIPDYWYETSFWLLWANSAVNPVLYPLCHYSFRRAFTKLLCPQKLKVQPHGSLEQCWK
From the text: (§1) Sublines of SK-N-MC cells were created that expressed a reporter construct and either the human or rat H3 receptor. The pA2 values were obtained as described by Barbier et al. (2004).

rat H3 receptor [3] = biological target: T2, rat H3 receptor; experiment: H3 Receptor Binding (Rat), rat brain membranes, N-[3H]-α-methylhistamine; settings: rat brain without cerebellum membranes; 0.8 nM N-[3H]-α-methylhistamine; average of results
Description: H3 Receptor Binding (Rat)
A rat brain without cerebellum (Zivic Laboratories Inc., Pittsburgh, Pa.) was homogenized in 50 mM Tris-HCl/5 mM EDTA and centrifuged at 1,000 rpm for 5 min. The supernatant was removed and recentrifuged at 15,000 rpm for 30 min. Pellets were rehomogenized in 50 mM Tris/5 mM EDTA (pH 7.4). Membranes were incubated with 0.8 nM N—[^3H]-α-methylhistamine plus/minus test compounds for 60 min at 25° C. and harvested by rapid filtration over GF/C glass fiber filters (pretreated with 0.3% polyethylenimine) followed by four washes with buffer. Nonspecific binding was defined in the presence of 100 μM histamine. Inhibitory concentration (responsible for 50% inhibition of maximal effect, IC50) values were determined by a single site curve-fitting program (GraphPad, San Diego, Calif.) and converted to Ki values based on a N—[^3H]-α-methylhistamine dissociation constant (Kd) of 0.8 nM.

human H3 receptor = human H3 receptor (Homo sapiens, UniProt Q9Y5N1); experiment: Cyclic AMP Accumulation, SK-N-MC cells expressing reporter construct and human H3 receptor; type: cell-based; settings: cAMP accumulation, average of results, read-out: Human pA2 (converted)
Sequence of human H3 receptor (Q9Y5N1 whole entry): as the sequence (Q9Y5N1 whole entry) above
From the text: as §1

Row | SMILES | pKi [1] | Kb (rat H3 receptor [2]) [nM] | pKi (rat H3 receptor [3]) | Kb (human H3 receptor) [nM]
1 | CC(C)N1CCCN(C(=O)c2ccc(OCC3(C)COC3)nc2)CC1 [Example 6, (4-Isopropyl-[1,4]diazepan-1-yl)-[6-(3-methyl-oxetan-3-ylmethoxy)-pyridin-3-yl]-methanone hydrochloride salt] | 7.43 | – | – | –
2 | O=C(c1ccc(OC2CCCC2)nc1)N1CCCN(C2CCC2)CC1 [Example 7, (4-Cyclobutyl-[1,4]diazepan-1-yl)-(6-cyclopentyloxy-pyridin-3-yl)-methanone] | 8.96 | 4.79 | 7.36 | 0.49
3 | O=C(c1ccc(OC2CCCCC2)nc1)N1CCCN(C2CCC2)CC1 [Example 8, (4-Cyclobutyl-[1,4]diazepan-1-yl)-(6-cyclohexyloxy-pyridin-3-yl)-methanone] | 9.10 | 9.77 | 7.77 | 1.05
4 | O=C(c1ccc(OC2CCOCC2)nc1)N1CCCN(C2CCC2)CC1 [Example 9, (4-Cyclobutyl-[1,4]diazepan-1-yl)-[6-(tetrahydro-pyran-4-yloxy)-pyridin-3-yl]-methanone] | 9.05 | 4.37 | 7.55 | 0.234
5 | N#Cc1nc(C(=O)N2CCCN(C3CC3)CC2)ccc1OC1CCOC1 (stereo not drawn) [Example 10, 6-(4-Cyclopropyl-[1,4]diazepane-1-carbonyl)-3-(tetrahydro-furan-3-yloxy)-pyridine-2-carbonitrile] | 7.68 | – | – | –
6 | N#Cc1nc(C(=O)N2CCCN(C3CC3)CC2)ccc1OC1CCCC1 [Example 11, 3-Cyclopentyloxy-6-(4-cyclopropyl-[1,4]diazepane-1-carbonyl)-pyridine-2-carbonitrile] | 8.22 | – | – | –
7 | N#Cc1nc(C(=O)N2CCCN(C3CC3)CC2)ccc1OC1CCCCC1 [Example 12, 3-Cyclohexyloxy-6-(4-cyclopropyl-[1,4]diazepane-1-carbonyl)-pyridine-2-carbonitrile] | 8.66 | – | – | –

Now from value to compound:

Row | pKi [1] | Kb (rat H3 receptor [2]) [nM] | pKi (rat H3 receptor [3]) | Kb (human H3 receptor) [nM] | SMILES
8 | 6.98 | – | – | – | CC(C)N1CCN(C(=O)c2ccc(OC3CCOC3)nc2)CC1 (stereo not drawn) [Example 1, (4-isopropyl-piperazin-1-yl)-[6-(tetrahydro-furan-3-yloxy)-pyridin-3-yl]-methanone hydrochloride salt]
9 | 8.05 | – | – | – | CC(C)N1CCCN(C(=O)c2ccc(OC3CCOC3)nc2)CC1 (stereo not drawn) [Example 2, (4-Isopropyl-[1,4]diazepan-1-yl)-[6-(tetrahydro-furan-3-yloxy)-pyridin-3-yl]-methanone hydrochloride salt]
10 | 8.17 | – | – | – | O=C(c1ccc(OC2CCOC2)nc1)N1CCCN(C2CC2)CC1 (stereo not drawn) [Example 3, (4-Cyclopropyl-[1,4]diazepan-1-yl)-[6-(tetrahydro-furan-3-yloxy)-pyridin-3-yl]-methanone]
11 | 8.89 | 14.5 | 7.24 | 0.331 | O=C(c1ccc(OC2CCOC2)nc1)N1CCCN(C2CCC2)CC1 (stereo not drawn) [Example 4, (4-Cyclobutyl-[1,4]diazepan-1-yl)-[6-(tetrahydro-furan-3-yloxy)-pyridin-3-yl]-methanone]
12 | 5.30 | – | – | – | CC(C)N1CCN(C(=O)c2ccc(OCC3(C)COC3)nc2)CC1 [Example 5, (4-isopropyl-piperazin-1-yl)-[6-(3-methyl-oxetan-3-ylmethoxy)-pyridin-3-yl]-methanone hydrochloride salt]
